{"source": "patent US20260048052A1", "about": "“METHODS OF TREATING TENOSYNOVIAL GIANT CELL TUMORS” (Deciphera Pharmaceuticals, LLC, priority 2023, published 2026)", "key": {"[1]": {"system": "patients with TGCT not amenable to surgery", "test": "Phase 3 study of vimseltinib in patients with TGCT: safety (TEAEs, Part 1)", "assay_type": "in vivo, human", "experimental": "This study is a two-part, randomized, double-blind, placebo-controlled study to assess the efficacy and safety of vimseltinib in patients with TGCT not amenable to surgery with no prior anti-CSF1/CSF1R therapy (prior therapy with imatinib or nilotinib allowed). In Part 1, patients (n=123) were randomized two-to-one to receive either 30 mg twice weekly of vimseltinib (n=83) or placebo (n=40) for 24 weeks. Vimseltinib or matching placebo was administered orally each week on day 1 and day 5 (±1 day) at approximately the same time of day on an empty stomach, with ≥24 hours between doses. An MRI of the affected joint was performed at screening, cycle 4 day 1 (week 13; ±7 days), and at the end of Part 1. Part 2 is an ongoing open-label study, in which patients from both the vimseltinib and placebo arms receive treatment with vimseltinib.\nThe primary endpoint of the study is the objective response rate (ORR) at Week 25 as measured by Response Evaluation Criteria in Solid Tumors (RECIST) version 1.1 by blinded independent radiologic review (IRR). Key secondary endpoints included the objective response rate at Week 25 by IRR per tumor volume score (TVS), active range of motion (ROM) at Week 25, PROMIS physical function (PROMIS-PF) score, worst stiffness numeric rating scale (NRS) score at Week 25, EQ-visual analogue scale (EQ-VAS) score at Week 25, and greater than or equal to 30% reduction in Brief Pain Inventory (BPI) in worst pain and less than 30% increase in narcotic use (BPI-30) at Week 25. Other secondary endpoints included duration of response (DOR) and safety.\nVimseltinib was well-tolerated and the safety profile in the study was consistent with previously disclosed data. […] Patients with treatment-emergent adverse events (TEAEs) leading to treatment discontinuation was 5% in the vimseltinib arm. The table below lists TEAEs greater than 15% in either arm during Part 1 of the study."}, "patients with TGCT": {"system": "patients with TGCT", "conditions": "human, in vivo", "experimental": "The safety population includes patients who received at least 1 dose of study drug. Severity was assessed by the investigator according to the toxicity grade described in the National Cancer Institute CTCAE v4.03 (grade 1 [mild] to grade 5 [death]). Time denotes the earliest start date of the worst grade for each TEAE; if the highest grade TEAE occurred in the first 12 months of treatment, lower grade events that occurred after 12 months were not captured in this figure. Key: AST, aspartate aminotransferase; COVID-19, coronavirus disease 2019; CPK, creatine phosphokinase; CTCAE v4.03, Common Terminology Criteria for Adverse Events version 4.03; LDH, lactate dehydrogenase; TEAE, treatment-emergent adverse event.\nThis is a Phase 1/2 open-label, multicenter study evaluating the safety and efficacy of vimseltinib in patients with TGCT. In Phase 1, 32 patients enrolled in three cohorts across multiple doses. In Phase 2, 66 patients enrolled in two cohorts at the recommended Phase 2 dose of 30 mg twice weekly: Cohort A (n=46) in TGCT patients with no prior anti-CSF1/CSF1R therapy (prior therapy with imatinib or nilotinib allowed); and Cohort B (n=20) in TGCT patients with prior anti-CSF1/CSF1R therapy (prior therapy with imatinib or nilotinib alone not eligible)."}, "[2]": {"conditions": "30 mg twice weekly, n=83, Part 1"}}}
{"smiles": "Cc1nc(-c2cnc(NC(C)C)n(C)c2=O)ccc1Oc1ccnc(-c2cnn(C)c2)c1", "note": "[Vimseltinib, 2-(isopropylamino)-3-methyl-5-(6-methyl-5-((2-(1-methyl-IH-pyrazol-4-yl)pyridin-4-yl)oxy)pyridin-2-yl)pyrimidin-4(3H)-one]", "values": [{"measurement": "cholestatic hepatotoxicity", "setting": "[1]; 30 mg twice weekly", "value": "no evidence of cholestatic hepatotoxicity"}, {"measurement": "related SAE", "setting": "[1]; 30 mg twice weekly", "value": "one related SAE of subcutaneous abscess"}, {"measurement": "severe adverse events (SAE) per patient", "setting": "[1]; 30 mg twice weekly", "value": "no severe adverse event (SAE) occurred in more than one patient"}, {"measurement": "tolerability", "setting": "[1]; 30 mg twice weekly", "value": "well-tolerated"}, {"measurement": "TEAE AST increased, All Grades", "setting": "[1]; [2]", "value": "19 (23%) n (%)"}, {"measurement": "TEAE AST increased, Grade 3-4, number of patients", "setting": "[1]; [2]", "value": 0, "unit": "n"}, {"measurement": "TEAE Arthralgia, All Grades", "setting": "[1]; [2]", "value": "16 (19%) n (%)"}, {"measurement": "TEAE Arthralgia, Grade 3-4, number of patients", "setting": "[1]; [2]", "value": 0, "unit": "n"}, {"measurement": "TEAE Asthenia, All Grades", "setting": "[1]; [2]", "value": "22 (27%) n (%)"}, {"measurement": "TEAE Asthenia, Grade 3-4, number of patients", "setting": "[1]; [2]", "value": 1, "unit": "n"}, {"measurement": "TEAE Asthenia, Grade 3-4, percent of patients", "setting": "[1]; [2]", "value": "(1%)"}, {"measurement": "TEAE CPK increased, All Grades", "setting": "[1]; [2]", "value": "20 (24%) n (%)"}, {"measurement": "TEAE CPK increased, Grade 3-4, number of patients", "setting": "[1]; [2]", "value": 8, "unit": "n"}, {"measurement": "TEAE CPK increased, Grade 3-4, percent of patients", "setting": "[1]; [2]", "value": 10, "unit": "%"}, {"measurement": "TEAE Diarrhea, All Grades", "setting": "[1]; [2]", "value": "10 (12%) n (%)"}, {"measurement": "TEAE Diarrhea, Grade 3-4, number of patients", "setting": "[1]; [2]", "value": 0, "unit": "n"}, {"measurement": "TEAE Edema peripheral, All Grades", "setting": "[1]; [2]", "value": "15 (18%) n (%)"}, {"measurement": "TEAE Edema peripheral, Grade 3-4, number of patients", "setting": "[1]; [2]", "value": 0, "unit": "n"}, {"measurement": "TEAE Face edema, All Grades", "setting": "[1]; [2]", "value": "26 (31%) n (%)"}, {"measurement": "TEAE Face edema, Grade 3-4, number of patients", "setting": "[1]; [2]", "value": 1, "unit": "n"}, {"measurement": "TEAE Face edema, Grade 3-4, percent of patients", "setting": "[1]; [2]", "value": "(1%)"}, {"measurement": "TEAE Fatigue, All Grades", "setting": "[1]; [2]", "value": "27 (33%) n (%)"}, {"measurement": "TEAE Fatigue, Grade 3-4, number of patients", "setting": "[1]; [2]", "value": 0, "unit": "n"}, {"measurement": "TEAE Headache, All Grades", "setting": "[1]; [2]", "value": "23 (28%) n (%)"}, {"measurement": "TEAE Headache, Grade 3-4, number of patients", "setting": "[1]; [2]", "value": 1, "unit": "n"}, {"measurement": "TEAE Headache, Grade 3-4, percent of patients", "setting": "[1]; [2]", "value": "(1%)"}, {"measurement": "TEAE Hypertension, All Grades", "setting": "[1]; [2]", "value": "14 (17%) n (%)"}, {"measurement": "TEAE Hypertension, Grade 3-4, number of patients", "setting": "[1]; [2]", "value": 4, "unit": "n"}, {"measurement": "TEAE Hypertension, Grade 3-4, percent of patients", "setting": "[1]; [2]", "value": "(5%)"}, {"measurement": "TEAE Nausea, All Grades", "setting": "[1]; [2]", "value": "21 (25%) n (%)"}, {"measurement": "TEAE Nausea, Grade 3-4, number of patients", "setting": "[1]; [2]", "value": 0, "unit": "n"}, {"measurement": "TEAE Periorbital edema, All Grades", "setting": "[1]; [2]", "value": "37 (45%) n (%)"}, {"measurement": "TEAE Periorbital edema, Grade 3-4, number of patients", "setting": "[1]; [2]", "value": 3, "unit": "n"}, {"measurement": "TEAE Periorbital edema, Grade 3-4, percent of patients", "setting": "[1]; [2]", "value": "(4%)"}, {"measurement": "TEAE Pruritus, All Grades", "setting": "[1]; [2]", "value": "24 (29%) n (%)"}, {"measurement": "TEAE Pruritus, Grade 3-4, number of patients", "setting": "[1]; [2]", "value": 2, "unit": "n"}, {"measurement": "TEAE Pruritus, Grade 3-4, percent of patients", "setting": "[1]; [2]", "value": "(2%)"}, {"measurement": "TEAE Rash maculo-papular, All Grades", "setting": "[1]; [2]", "value": "16 (19%) n (%)"}, {"measurement": "TEAE Rash maculo-papular, Grade 3-4, number of patients", "setting": "[1]; [2]", "value": 1, "unit": "n"}, {"measurement": "TEAE Rash maculo-papular, Grade 3-4, percent of patients", "setting": "[1]; [2]", "value": "(1%)"}, {"measurement": "TEAE Rash, All Grades", "setting": "[1]; [2]", "value": "16 (19%) n (%)"}, {"measurement": "TEAE Rash, Grade 3-4, number of patients", "setting": "[1]; [2]", "value": 0, "unit": "n"}, {"measurement": "TEAE CPK increased, Grade 3-4, percent of patients", "setting": "[1]; 30 mg twice weekly, n=83, Part 1, listed as Vimseltinb", "value": "(10%)"}, {"measurement": "Patients with TEAEs leading to treatment discontinuation", "setting": "[1]; vimseltinib arm", "value": 5, "unit": "%"}, {"measurement": "Grade 3/4 TEAE eczema", "setting": "patients with TGCT", "value": 10, "unit": "%"}, {"measurement": "Grade 3/4 TEAE increased blood CPK", "setting": "patients with TGCT", "value": 35, "unit": "%"}, {"measurement": "Grade 3/4 TEAE increased blood creatine phosphokinase (CPK)", "setting": "patients with TGCT", "value": 48, "unit": "%"}, {"measurement": "grade of the majority of TEAEs", "setting": "patients with TGCT", "value": "grade 1 or 2"}, {"measurement": "onset of the majority of the most severe events", "setting": "patients with TGCT", "value": "≤ 12", "unit": "months"}, {"measurement": "tolerability", "setting": "patients with TGCT", "value": "well-tolerated"}, {"measurement": "tolerability, longer follow-up", "setting": "patients with TGCT", "value": "continued to be well tolerated with a manageable safety profile"}, {"measurement": "treatment discontinuation due to TEAEs", "setting": "patients with TGCT", "value": 9, "unit": "%"}]}
